The values that follow come from PMC9312901 (2022).

Assay [1] concerns APT (3-O-C12-HSL aptamer) (DNA, aptamer) GCAATGGTACGGTACTTCCCGGGGCCCGCTTCTGGTGCGGTGTACTAGTGACCGCAAAAGTGCACGCTACTTTGCTAA
The experiment in a line: EIS aptasensor (C-SPE/AuNPs/APT/MCH). As to conditions: 10 µM compound, 30 min, room temperature; [Fe(CN)6]3-/4- redox probe.

Assay [2] has the same test system. As to the kind of experiment: SPR, steady-state affinity fit. The following applies: Na+ 100 mM; K+ 100 mM; Mg2+ 10 mM (TRIS buffer; running buffer printed only as 10 mM TRIS); 10 mM TRIS pH 7.4 running buffer; aptamer on gold chip, MCH blocked; 10-1000 nM.
Assay [3] shares this test system. The experiment in a line: SPR, kinetic 1:1 Langmuir fit (kd/ka). As to conditions: Na+ 100 mM; K+ 100 mM; Mg2+ 10 mM (TRIS buffer; running buffer printed only as 10 mM TRIS); 10 mM TRIS pH 7.4 running buffer; aptamer on gold chip, MCH blocked; 10-1000 nM. (In general: SPR reads the build-up and loss of mass on a sensor chip optically.)
Assay [4] shares this test system. The experiment in a line: DPV on C-SPE/AuNPs/APT/MCH electrode. The following applies: 0.5 mM MB, 30 min; measured in 10 mM PBS pH 7.4; MB lost on successive blank incubations.

As to `CCCC(=O)N[C@H]1CCOC1=O`, the binding result in assay [1] is reported as “weak”.
Same read-out and setting: the same measure for `CCCCCCCC(=O)CC(=O)N[C@H]1CCOC1=O`: “yes”.
With `CCCCCCCCCC(=O)CC(=O)N[C@H]1CCOC1=O`, the “KD,equilibrium” value in assay [2] worked out at 0.1067 ± 0.0093 µM. For the same molecule, in assay [3], the “KD,kinetic” value was determined as 0.0871 ± 0.01 µM.
For the molecule `CCCCCCCCCCCC(=O)N[C@H]1CCOC1=O`, in assay [1], the binding result was “yes”.
As for `CN(C)c1ccc2nc3ccc(N(C)C)cc3[s+]c2c1`, in assay [4], the binding entry is on record as “yes”.
